Test results reported in article PMC12040169 (PLOS Biology, 2025).
Values joined by “and” are separate entries in the source; they are usually repeats but may differ in a detail not shown here. Equal entries are not always repeated.

Legend:
HeLa = settings: bulk resorufin, single well, 28.5 h, 10 µM, Bulk resorufin fluorescence
in vitro [1] = settings: human, hela cells, % viability
[2] = system: T1, C. trachomatis L2/434/Bu expressing GFP (CTL2-GFP); test: microbe, parasite or virus in culture; parameters: C. trachomatis total inclusion area by high-content imaging, normalised to DMSO; settings: Chlamydia trachomatis, HeLa, 28.5 h; total inclusion area; read-out: % of control remaining
T1 construct: L2/434/Bu GFP intracellular growth in HeLa cells
Outline: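 Infected cells treated with library compounds were read for bulk GFP (chlamydial growth) and resorufin fluorescence (host viability), then fixed, Hoechst-stained and imaged. Inclusion area and number from GFP, plus nuclei counts, served as additional growth and viability proxies; MICs derived as previously described.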

[3] = system: T2, CTL2-GFP (C. trachomatis L2/434/Bu, GFP-expressing); test: microbe, parasite or virus in culture; parameters: Intracellular C. trachomatis growth in HeLa cells, bulk GFP fluorescence relative to DMSO; settings: Chlamydia trachomatis, HeLa, 28.5 h; bulk GFP, mean of 2; read-out: % of control remaining
T2 construct: L2/434/Bu, GFP-expressing
Method: MICs were calculated as described above.

in vitro [4] = test: in vitro; parameters: Viability of infected HeLa host cells, resazurin conversion, bulk resorufin fluorescence relative to DMSO; settings: human, hela cells; bulk resorufin, mean of 2

SMILES: Cc1ccc(S(=O)(=O)Nc2ccsc2C(=O)N2CCOCC2)cc1 [CBK004570]
- % viability (HeLa): 107%
- viability at 28.5 h, 10 µM (in vitro [1]): 99.9%

SMILES: O=C(CC1SC(NC2CC3C=CC2C3)=NC1=O)Nc1ccccc1Cl (stereo not shown) [CBK005795]
- % viability (HeLa): 109% and 72.5%

SMILES: COc1ccc(-c2nc(SCc3ccccc3)[nH]c(=O)c2C#N)cc1 [CBK007169]
- % viability (HeLa): 107% and 84.8%

SMILES: CNc1cc(NS(=O)(=O)c2ccc(N)cc2)nc(NC)n1 [CBK011865]
- % viability (HeLa): 93%

SMILES: O=C(O)CCc1nn2c(-c3ccccc3)c(-c3ccccc3)nc2[nH]c1=O [CBK013564]
- % viability (HeLa): 94.1%
- viability at 28.5 h, 10 µM (in vitro [1]): 86.5%

SMILES: c1ccc(-c2csc3ncnc(NCc4ccco4)c23)cc1 [CBK017506]
- % viability (HeLa): 84.6%
- viability at 28.5 h, 10 µM (in vitro [1]): 91.1%

SMILES: O=S(=O)(/C=C/c1ccncc1)NCc1ccc2c(c1)OCO2 [CBK018566]
- % viability (HeLa): 92.8%
- viability at 28.5 h, 10 µM (in vitro [1]): 91.3%

SMILES: CCc1cc(CN(CC)CC)n[nH]1 [CBK018654]
- % viability (HeLa): 94.5%
- viability at 28.5 h, 10 µM (in vitro [1]): 114%

SMILES: CCn1c(C)nc2cc(C(=O)N3N=CCC3(O)C(F)(F)F)ccc21 (stereo not shown) [CBK019301]
- % viability (HeLa): 108%
- viability at 28.5 h, 10 µM (in vitro [1]): 105%

SMILES: Oc1ccccc1-c1cc(-c2cc3ccccc3o2)no1 [CBK019513]
- % viability (HeLa): 117%
- viability at 28.5 h, 10 µM (in vitro [1]): 113%

SMILES: COC(=O)c1ccccc1OC[C@@H]1CN(C(=O)C(C)(C)N)C[C@H]1c1cc2ccccc2o1 [CBK022525T]
- % viability (HeLa): 92.2%
- viability at 28.5 h, 10 µM (in vitro [1]): 106%

SMILES: CC(NC(=O)N(Cc1ccccc1C(F)(F)F)CC(C)(C)CN)c1ccccc1 (stereo not shown) [CBK026834C]
- % viability (HeLa): 118% and 97.8%

SMILES: O=C(O)CCC(=O)Nc1ccc(Br)cn1 [CBK056920]
- % viability (HeLa): 89.9% and 110%

SMILES: Nc1cc2cccnc2c(-c2cc(F)cc(F)c2)n1 [CBK061908]
- % viability (HeLa): 80.4% and 85.8% and 103%

SMILES: O=C1NCCN1CCNS(=O)(=O)c1csc2ccccc12 [CBK062602]
- % viability (HeLa): 117% and 90%

SMILES: CN(C(=O)CC1SC(NCC2CCCCC2)=NC1=O)c1ccccc1 (stereo not shown) [CBK067371]
- % viability (HeLa): 87.9% and 110%

SMILES: COC(=O)Cn1nnc(-c2ccc(C)cc2)n1 [CBK068195]
- % viability (HeLa): 123% and 93.2%

SMILES: CC(C)C(=O)Nc1cc2cccnc2c(-c2cccc(C(F)(F)F)c2)n1 [CBK081266]
- % viability (HeLa): 125% and 100%

SMILES: COc1ccc(C(C)C)cc1-c1cnc2ncccc2c1N [CBK083686]
- % viability (HeLa): 108% and 81.3%

SMILES: CCOC(=O)CN1CCC(Oc2nccnc2OCCN2C(=O)CCC2=O)CC1 [CBK084348]
- % viability (HeLa): 120% and 80%

SMILES: c1ccc(CN2CCC(Oc3cncc(OCCN4CCOCC4)n3)C2)cc1 (stereo not shown) [CBK084478]
- % viability (HeLa): 107% and 84%

SMILES: O=C(Nc1cccnc1)c1cnc2cc(C(F)(F)F)ccc2c1O [CBK107474T]
- % viability (HeLa): 88%

SMILES: O=C(Nc1cc(-c2ccncc2)c[nH]c1=O)c1ccc(Cl)c(Cl)c1 [CBK115868]
- % viability (HeLa): 94.1% and 119%

SMILES: COc1cc2c(cc1OC)CN(C(=O)c1ccc3occc3c1)CC2 [CBK122746]
- % viability (HeLa): 66.2% and 36.8%

SMILES: O=C(c1cccc(C(F)(F)F)c1)N1CCCC2(CCN(C(=O)c3ccoc3)C2)C1 (stereo not shown) [CBK131616]
- % viability (HeLa): 116% and 88%

SMILES: Cc1onc(-c2ccccc2)c1CNC(=O)C1COc2ccccc2O1 (stereo not shown) [CBK144086]
- % viability (HeLa): 104% and 80.3%

SMILES: O=c1cc(O)c2ccccc2n1Cc1ccccc1 [CBK218877]
- % viability (HeLa): 107% and 84.4%

SMILES: CC(Oc1ccccc1)C(=O)Nc1ccccc1C(=O)O (stereo not shown) [CBK262854]
- % viability (HeLa): 109% and 87%

SMILES: CCOC(=O)c1cnc2c(Cl)cccc2c1NCCN1CCOCC1 [CBK263919]
- % viability (HeLa): 88.1% and 109%

SMILES: O=C(CSc1nc(O)c(Cc2ccccc2)c(=O)[nH]1)Nc1ccc([N+](=O)[O-])cc1 [CBK265887]
- % viability (HeLa): 88% and 113%

SMILES: N=c1c2c(-c3ccccc3)c(-c3ccccc3)n(Cc3ccccc3)c2ncn1CCN1CCOCC1 [CBK268537]
- activity at 1 µM [2]: 119%
- activity at 5 µM [2]: 66.8%
- activity at 10 µM [2]: 34.6%
- activity at 1 µM [3]: 123%
- activity at 5 µM [3]: 83%
- activity at 10 µM [3]: 70.7%
- viability at 28.5 h, 1 µM (in vitro [4]): 94.8%
- viability at 28.5 h, 5 µM (in vitro [4]): 97.8%
- viability at 28.5 h, 10 µM (in vitro [4]): 93.4%
- viability at 28.5 h, 10 µM (in vitro [1]): 92%

SMILES: Cn1cc(C(=O)N2CCc3[nH]c4ccccc4c3C2)cn1 [CBK281875]
- % viability (HeLa): 104% and 83.7%

SMILES: CC[C@@H](Cn1nc(-c2cccs2)ccc1=O)NC(=O)C1CC1 [CBK282309]
- % viability (HeLa): 80.2% and 102%

SMILES: C=CCNC(=O)[C@H]1C=CCN1C(=O)Nc1ccc(F)cc1 [CBK282318]
- % viability (HeLa): 82.7% and 110%

SMILES: CC(C)[C@@H](N)Cn1nc(-c2ccc(F)c(F)c2)ccc1=O [CBK282429]
- % viability (HeLa): 83% and 112%

SMILES: COc1ccc(CN2C(=O)[C@H]3CCCN3C(=O)c3ccccc32)cc1 [CBK282851]
- % viability (HeLa): 87.8% and 109%

SMILES: C[C@H]1CN2C[C@H](O)CC2CN1Cc1ccc(C(F)(F)F)cc1 (stereo partly shown) [CBK285147]
- % viability (HeLa): 113% and 89.6%

SMILES: C[C@H]1CN2C[C@H](O)CC2CN1Cc1ccc(-c2ccccc2Cl)o1 (stereo partly shown) [CBK285418]
- % viability (HeLa): 109% and 85.9%

SMILES: CCC(c1ccc(F)cc1)N(C)C(=O)Cn1cc(C(=O)NC2CCCCC2)ccc1=O (stereo not shown) [CBK286106]
- activity at 1 µM [2]: 114%
- activity at 5 µM [2]: 27.8%
- activity at 10 µM [2]: 2.51%
- activity at 1 µM [3]: 128%
- activity at 5 µM [3]: 21.7%
- activity at 10 µM [3]: 7.58%
- viability at 28.5 h, 1 µM (in vitro [4]): 89.5%
- viability at 28.5 h, 5 µM (in vitro [4]): 95.3%
- viability at 28.5 h, 10 µM (in vitro [4]): 87.5%
- viability at 28.5 h, 10 µM (in vitro [1]): 89.8%

SMILES: CN(C)c1ncc(-c2cccc(Cl)c2)c(C2CCCN2C(=O)CC2CCCC2)n1 (stereo not shown) [CBK286253]
- activity at 1 µM [2]: 105%
- activity at 5 µM [2]: 82.7%
- activity at 10 µM [2]: 44.1%
- activity at 1 µM [3]: 135%
- activity at 5 µM [3]: 91%
- activity at 10 µM [3]: 43.9%
- viability at 28.5 h, 1 µM (in vitro [4]): 97.3%
- viability at 28.5 h, 5 µM (in vitro [4]): 106%
- viability at 28.5 h, 10 µM (in vitro [4]): 110%
- viability at 28.5 h, 10 µM (in vitro [1]): 120%

SMILES: O=C(O)CC1C(=O)NC(=O)N1CCc1ccccc1 (stereo not shown) [CBK287254]
- % viability (HeLa): 111% and 85.3%

SMILES: Cc1ccc2sc(NC(=O)c3ccc(N4C(=O)CCC4=O)cc3)nc2c1C [CBK287587]
- % viability (HeLa): 84.7% and 106%

SMILES: COc1ccc(Nc2nccc(-c3cccnc3)n2)cc1 [CBK288073]
- % viability (HeLa): 70.2% and 104%

SMILES: O=c1c2cnc3ccnn3c2ccn1C1CCCC1 [CBK288074]
- activity at 1 µM [2]: 65.5%
- activity at 5 µM [2]: 60.4%
- activity at 10 µM [2]: 4.02%
- activity at 1 µM [3]: 109%
- activity at 5 µM [3]: 72.3%
- activity at 10 µM [3]: 2.35%
- viability at 28.5 h, 1 µM (in vitro [4]): 103%
- viability at 28.5 h, 5 µM (in vitro [4]): 106%
- viability at 28.5 h, 10 µM (in vitro [4]): 109%
- viability at 28.5 h, 10 µM (in vitro [1]): 107%

SMILES: CC(=O)c1c(C)nc(-c2ccc(Cl)c(Cl)c2)n1O [CBK288525]
- % viability (HeLa): 116% and 89.2%

SMILES: COCC(=O)N[C@H]1C[C@H]2C(=O)Nc3ccc(/C=C/c4ccccc4)cc3C(=O)N2C1 [CBK289366]
- activity at 1 µM [2]: 105%
- activity at 5 µM [2]: 11.7%
- activity at 10 µM [2]: 1.71%
- activity at 1 µM [3]: 87.5%
- activity at 5 µM [3]: 12%
- activity at 10 µM [3]: 2.8%
- viability at 28.5 h, 1 µM (in vitro [4]): 93.1%
- viability at 28.5 h, 5 µM (in vitro [4]): 96.4%
- viability at 28.5 h, 10 µM (in vitro [4]): 98.1%
- viability at 28.5 h, 10 µM (in vitro [1]): 90.2%

SMILES: O=C1CNC(=O)C2(C/C=C/C[C@H]3COCC[C@H]3N1)CCNCC2 [CBK292151]
- % viability (HeLa): 82.1% and 104%

SMILES: Cc1csc(SC(C)C(=O)N2CCc3ccccc32)n1 (stereo not shown) [CBK305909]
- activity at 1 µM [2]: 112%
- activity at 5 µM [2]: 49.8%
- activity at 10 µM [2]: 42.5%
- activity at 1 µM [3]: 143%
- activity at 5 µM [3]: 149%
- activity at 10 µM [3]: 132%
- viability at 28.5 h, 1 µM (in vitro [4]): 94.1%
- viability at 28.5 h, 5 µM (in vitro [4]): 91.9%
- viability at 28.5 h, 10 µM (in vitro [4]): 89.5%
- viability at 28.5 h, 10 µM (in vitro [1]): 98.8%

SMILES: COc1cc2c(cc1CNC(=O)c1cn(CCN)nn1)CCC2 [CBK306886]
- activity at 1 µM [2]: 176%
- activity at 5 µM [2]: 112%
- activity at 10 µM [2]: 45.1%
- activity at 1 µM [3]: 167%
- activity at 5 µM [3]: 109%
- activity at 10 µM [3]: 35.5%
- viability at 28.5 h, 1 µM (in vitro [4]): 97.3%
- viability at 28.5 h, 5 µM (in vitro [4]): 96.7%
- viability at 28.5 h, 10 µM (in vitro [4]): 92.4%
- viability at 28.5 h, 10 µM (in vitro [1]): 84.7%

SMILES: Cn1cc(C(NC(=O)c2nc(N)nc3c2CCCC3)[C@H]2C[C@@H](O)C2)cn1 (stereo partly shown) [CBK307535]
- % viability (HeLa): 92.2% and 114%
